18 compounds from ChEMBL document CHEMBL1201862, “PubChem BioAssay data set” (2004) can be followed below.

As a reminder, the IC50 is the concentration at which inhibition is half-maximal. The AC50 is the concentration giving half of the maximal activity seen. In general, EC50 refers to the midpoint of the concentration-response curve.

Assay [1] addresses T1, Coagulation factor XII (Homo sapiens, UniProt P00748).
T1 sequence (P00748 whole entry): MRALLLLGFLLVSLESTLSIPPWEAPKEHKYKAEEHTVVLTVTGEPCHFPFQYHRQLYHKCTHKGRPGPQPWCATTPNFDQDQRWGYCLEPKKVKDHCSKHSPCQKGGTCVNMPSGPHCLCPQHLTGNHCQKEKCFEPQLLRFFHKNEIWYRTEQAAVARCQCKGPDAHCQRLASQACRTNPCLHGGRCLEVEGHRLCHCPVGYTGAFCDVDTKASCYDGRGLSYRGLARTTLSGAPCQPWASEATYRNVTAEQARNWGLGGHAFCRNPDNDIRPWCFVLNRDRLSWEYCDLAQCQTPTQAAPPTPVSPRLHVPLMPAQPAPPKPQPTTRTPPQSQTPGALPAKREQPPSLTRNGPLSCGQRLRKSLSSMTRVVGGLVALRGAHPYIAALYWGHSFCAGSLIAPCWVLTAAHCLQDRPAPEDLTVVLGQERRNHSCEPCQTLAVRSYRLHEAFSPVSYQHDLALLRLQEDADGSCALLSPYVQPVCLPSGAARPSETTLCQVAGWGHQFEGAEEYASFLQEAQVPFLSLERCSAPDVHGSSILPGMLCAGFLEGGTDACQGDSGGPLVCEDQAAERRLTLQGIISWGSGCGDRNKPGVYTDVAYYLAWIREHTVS
Format: functional.

Assay [2] addresses DNA dC->dU-editing enzyme APOBEC-3G (Homo sapiens, UniProt Q9HC16). Nature of the assay: Dose Response confirmation of small molecule APOBEC3G DNA Deaminase Inhibitors via a fluorescence-based single-stranded DNA deaminase assay. [Related pubchem assays (depositor defined):AID493012, AID493028]. Format: functional.
The target of assay [3] is T2, Cytochrome P450 3A4 (Homo sapiens, UniProt P08684). The following applies: Potency.
T2 sequence (P08684 whole entry): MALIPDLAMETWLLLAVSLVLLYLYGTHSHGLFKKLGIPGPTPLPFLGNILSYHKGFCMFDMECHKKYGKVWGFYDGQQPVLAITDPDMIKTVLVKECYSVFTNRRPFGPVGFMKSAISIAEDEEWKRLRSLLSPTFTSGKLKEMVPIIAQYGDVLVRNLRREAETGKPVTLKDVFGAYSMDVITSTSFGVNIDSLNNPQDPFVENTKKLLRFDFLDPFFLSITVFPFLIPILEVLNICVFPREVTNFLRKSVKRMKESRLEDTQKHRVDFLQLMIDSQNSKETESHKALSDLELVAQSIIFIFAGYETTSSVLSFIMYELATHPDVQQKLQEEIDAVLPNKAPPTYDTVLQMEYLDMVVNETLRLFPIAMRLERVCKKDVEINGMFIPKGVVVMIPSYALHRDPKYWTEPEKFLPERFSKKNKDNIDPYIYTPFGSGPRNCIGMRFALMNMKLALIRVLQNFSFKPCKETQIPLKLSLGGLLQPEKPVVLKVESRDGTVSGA
Assay [4] concerns INS1. As to the kind of experiment: INS-1E survival protection against cytokine death – cell-based, luminescence, retest, dose response (AID 449756).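 Note: cell death triggered by IL-1 beta plus TNF-alpha plus IFN-gamma mixture; protective hits raise ATP signal compared with cytokine alone wells.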 Format: functional. The following applies: Rattus norvegicus.
Assay [5] addresses Neurotensin receptor type 1 (Homo sapiens, UniProt P30989). The format is functional.
Assay [6] can be described thus: A cytotoxicity screen of small molecule inhibitors of the PhoP region in Salmonella typhi identified in the primary screen. [Related pubchem assays: 1850, 1864, 1985 ]. The format is functional.
Assay [7] has as its target FAD-linked sulfhydryl oxidase ALR (Homo sapiens, UniProt P55789). Nature of the assay: ALR-catalysed DTT oxidation blockers – biochemical, H2O2 detection, luminescence, cherry-pick, dose response (AID 493248).
In assay [8] the target is Large T antigen (Simian virus 40, UniProt P03070). Format: functional, Betapolyomavirus macacae.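 Note: Confirmatory-stage PubChem screen for compounds that inhibit SV40 T antigen.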
Sequence of Large T antigen (P03070 whole entry): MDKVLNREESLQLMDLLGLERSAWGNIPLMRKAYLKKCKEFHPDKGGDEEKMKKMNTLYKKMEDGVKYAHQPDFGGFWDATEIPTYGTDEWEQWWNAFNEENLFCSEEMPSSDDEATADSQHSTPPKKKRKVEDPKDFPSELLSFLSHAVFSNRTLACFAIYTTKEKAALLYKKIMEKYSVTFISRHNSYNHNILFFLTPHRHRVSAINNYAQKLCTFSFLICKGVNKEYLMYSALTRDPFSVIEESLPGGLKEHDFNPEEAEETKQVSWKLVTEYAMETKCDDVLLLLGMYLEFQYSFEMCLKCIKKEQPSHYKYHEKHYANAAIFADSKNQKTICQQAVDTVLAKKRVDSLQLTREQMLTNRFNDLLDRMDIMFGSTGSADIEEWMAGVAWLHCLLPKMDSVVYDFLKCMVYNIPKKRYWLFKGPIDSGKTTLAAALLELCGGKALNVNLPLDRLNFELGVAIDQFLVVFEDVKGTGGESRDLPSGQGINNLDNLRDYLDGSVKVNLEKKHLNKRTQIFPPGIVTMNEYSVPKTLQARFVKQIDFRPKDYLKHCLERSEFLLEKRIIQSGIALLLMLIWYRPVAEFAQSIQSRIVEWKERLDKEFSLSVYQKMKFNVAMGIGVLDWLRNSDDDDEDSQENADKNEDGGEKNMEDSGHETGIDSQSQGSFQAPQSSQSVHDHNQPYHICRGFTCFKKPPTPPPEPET
Assay [9] has as its target T3, Leucine aminopeptidase (Plasmodium falciparum 3D7, UniProt Q8IL11).
T3 sequence (Q8IL11 whole entry): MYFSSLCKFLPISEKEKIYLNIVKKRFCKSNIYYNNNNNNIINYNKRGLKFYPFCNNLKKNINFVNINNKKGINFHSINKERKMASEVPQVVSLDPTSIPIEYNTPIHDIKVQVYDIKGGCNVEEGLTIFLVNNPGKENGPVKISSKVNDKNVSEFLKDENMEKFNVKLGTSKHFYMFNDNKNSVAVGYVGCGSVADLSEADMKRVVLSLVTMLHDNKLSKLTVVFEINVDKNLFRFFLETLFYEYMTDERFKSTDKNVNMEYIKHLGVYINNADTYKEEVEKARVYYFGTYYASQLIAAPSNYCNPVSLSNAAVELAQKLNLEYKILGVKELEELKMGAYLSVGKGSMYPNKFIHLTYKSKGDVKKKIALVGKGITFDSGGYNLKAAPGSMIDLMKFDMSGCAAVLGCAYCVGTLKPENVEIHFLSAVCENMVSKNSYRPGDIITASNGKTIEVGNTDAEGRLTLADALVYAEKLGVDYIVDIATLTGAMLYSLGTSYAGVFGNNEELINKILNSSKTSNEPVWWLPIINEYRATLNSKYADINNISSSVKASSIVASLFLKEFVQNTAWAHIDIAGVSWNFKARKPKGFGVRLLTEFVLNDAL
Nature of the assay: P. falciparum M17LAP inhibitors, primary screen, biochemical, fluorogenic H-Leu-NHMec substrate, 1536-well (AID 1619). The format is functional.

In assay [10] the target is T4, Protein RecA (Mycobacterium tuberculosis, UniProt P9WHJ3).
T4 sequence (P9WHJ3 whole entry): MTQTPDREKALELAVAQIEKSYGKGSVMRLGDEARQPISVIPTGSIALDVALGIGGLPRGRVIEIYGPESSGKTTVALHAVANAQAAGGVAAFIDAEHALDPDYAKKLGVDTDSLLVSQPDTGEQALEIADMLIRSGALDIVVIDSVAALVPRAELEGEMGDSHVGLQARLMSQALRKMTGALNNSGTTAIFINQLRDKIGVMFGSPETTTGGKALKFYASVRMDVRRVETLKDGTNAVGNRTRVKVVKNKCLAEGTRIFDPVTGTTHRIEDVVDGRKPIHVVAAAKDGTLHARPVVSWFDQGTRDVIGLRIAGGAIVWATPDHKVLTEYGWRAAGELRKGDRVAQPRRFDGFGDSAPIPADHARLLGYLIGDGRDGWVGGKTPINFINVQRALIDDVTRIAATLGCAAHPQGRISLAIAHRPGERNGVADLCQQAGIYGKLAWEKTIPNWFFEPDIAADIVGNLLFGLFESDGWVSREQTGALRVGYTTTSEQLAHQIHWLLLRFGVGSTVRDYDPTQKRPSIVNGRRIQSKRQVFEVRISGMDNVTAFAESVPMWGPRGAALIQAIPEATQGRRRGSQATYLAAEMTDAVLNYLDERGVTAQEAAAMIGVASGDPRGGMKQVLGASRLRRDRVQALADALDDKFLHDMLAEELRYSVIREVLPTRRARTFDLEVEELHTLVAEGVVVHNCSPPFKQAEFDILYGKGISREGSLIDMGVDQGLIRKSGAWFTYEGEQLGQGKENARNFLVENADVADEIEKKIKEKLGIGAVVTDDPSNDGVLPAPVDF
As to the kind of experiment: Fluorescence Cell-Free Homogeneous Dose Retest to Identify Inhibitors of RecA-Intein Splicing Activity. [Related pubchem assays (depositor defined):AID2097, AID2223, AID489010, AID492950]. Format: functional.

Assay [11] concerns the target T5, Replicative DNA helicase DnaB (Mycobacterium tuberculosis, UniProt P9WMR3).
T5 sequence (P9WMR3 whole entry): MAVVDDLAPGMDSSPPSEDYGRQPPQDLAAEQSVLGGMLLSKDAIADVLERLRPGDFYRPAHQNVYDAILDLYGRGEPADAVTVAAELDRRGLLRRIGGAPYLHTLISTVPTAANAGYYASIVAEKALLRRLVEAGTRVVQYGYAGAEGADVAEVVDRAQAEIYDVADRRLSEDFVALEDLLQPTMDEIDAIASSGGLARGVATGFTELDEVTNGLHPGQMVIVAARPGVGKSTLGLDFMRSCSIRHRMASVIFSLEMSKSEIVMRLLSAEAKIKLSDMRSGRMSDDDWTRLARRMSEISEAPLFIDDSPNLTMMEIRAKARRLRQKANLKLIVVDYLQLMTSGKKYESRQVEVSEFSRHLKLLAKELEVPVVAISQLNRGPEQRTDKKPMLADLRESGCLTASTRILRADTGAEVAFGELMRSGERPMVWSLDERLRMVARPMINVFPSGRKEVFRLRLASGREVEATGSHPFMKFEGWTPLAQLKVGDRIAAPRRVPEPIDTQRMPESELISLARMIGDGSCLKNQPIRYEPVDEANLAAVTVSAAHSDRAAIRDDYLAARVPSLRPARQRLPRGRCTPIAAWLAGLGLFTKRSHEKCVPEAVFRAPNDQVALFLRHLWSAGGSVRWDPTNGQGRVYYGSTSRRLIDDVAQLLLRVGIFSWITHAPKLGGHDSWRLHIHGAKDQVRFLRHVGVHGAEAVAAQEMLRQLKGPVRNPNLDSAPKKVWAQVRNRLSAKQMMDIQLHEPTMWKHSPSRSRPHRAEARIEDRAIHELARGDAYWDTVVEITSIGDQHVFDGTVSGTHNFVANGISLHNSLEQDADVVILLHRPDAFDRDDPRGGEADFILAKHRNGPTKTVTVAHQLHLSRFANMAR
As to the kind of experiment: DnaB intein splicing inhibitors, dose response, biochemical, cell-free fluorescence (AID 449749). The format is functional.

The target of assay [12] is T2, Cytochrome P450 3A4.
Assay [13] deals with T6, Short transient receptor potential channel 4 (Mus musculus, UniProt Q9QUQ5).
T6 sequence (Q9QUQ5 whole entry): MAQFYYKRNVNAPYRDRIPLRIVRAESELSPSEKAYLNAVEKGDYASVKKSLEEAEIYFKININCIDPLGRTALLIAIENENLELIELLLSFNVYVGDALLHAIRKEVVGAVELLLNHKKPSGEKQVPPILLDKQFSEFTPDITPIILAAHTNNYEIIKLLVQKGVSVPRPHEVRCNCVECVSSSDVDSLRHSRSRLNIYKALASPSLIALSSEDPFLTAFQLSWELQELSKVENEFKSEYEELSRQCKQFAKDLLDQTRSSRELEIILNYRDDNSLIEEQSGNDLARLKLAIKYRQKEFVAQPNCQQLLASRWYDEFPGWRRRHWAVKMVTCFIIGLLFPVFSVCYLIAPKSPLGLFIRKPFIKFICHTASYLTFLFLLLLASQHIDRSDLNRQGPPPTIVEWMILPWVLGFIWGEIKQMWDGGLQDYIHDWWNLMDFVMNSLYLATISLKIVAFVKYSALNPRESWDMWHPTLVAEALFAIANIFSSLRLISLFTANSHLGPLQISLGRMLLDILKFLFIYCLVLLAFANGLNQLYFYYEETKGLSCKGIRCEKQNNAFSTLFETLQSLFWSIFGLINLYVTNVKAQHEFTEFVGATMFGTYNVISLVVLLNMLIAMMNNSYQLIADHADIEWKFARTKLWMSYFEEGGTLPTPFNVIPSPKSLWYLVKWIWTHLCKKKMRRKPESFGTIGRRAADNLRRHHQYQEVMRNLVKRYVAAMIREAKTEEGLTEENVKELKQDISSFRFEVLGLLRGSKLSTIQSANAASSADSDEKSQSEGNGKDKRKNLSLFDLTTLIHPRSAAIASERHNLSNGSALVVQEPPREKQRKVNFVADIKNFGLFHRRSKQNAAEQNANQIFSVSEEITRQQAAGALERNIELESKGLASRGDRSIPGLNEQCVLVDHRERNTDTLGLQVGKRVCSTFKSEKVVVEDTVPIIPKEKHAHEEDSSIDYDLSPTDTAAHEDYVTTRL
Nature of the assay: calcium entry via TRPC4 opening agents – cell-based, HEK293 TRPC4/mu-opioid, Fluo-4 calcium, dose response (AID 434937). The format is functional.

A short description of assay [14]: viability of HCT116 lacking mutant beta-catenin – cell-based, human colon tumor, dose response (AID 1045).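 Note: HCT116 colon tumor cells with beta catenin knocked out; cells exposed to compound for 60 hours.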 The format is functional.
Assay [15] can be described thus: Luminescence Cell-Based Dose Retest to Confirm Inhibitors of Cancer Stem Cells. [Related pubchem assays (depositor defined):AID2717, AID2721]. The format is functional. The following applies: Homo sapiens.
A short description of assay [16]: viability of PTEN-deleted HCT116 cells – cell-based, HCT116 PTEN knockout, dose response (AID 1047).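 Note: HCT116 colon tumor cells with PTEN knocked out; cells exposed to compound for 60 hours before readout; potency for loss of cell viability measured by luminescence.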 The format is functional.

Values joined by “and” are separate entries in the source; they are usually repeats but may differ in a detail not shown here. Identical values can stand only once. Active and inactive are the calls of the source. Where only a bound is given, the exact number is not on record here.

Sequence of Neurotensin receptor type 1 (P30989 whole entry): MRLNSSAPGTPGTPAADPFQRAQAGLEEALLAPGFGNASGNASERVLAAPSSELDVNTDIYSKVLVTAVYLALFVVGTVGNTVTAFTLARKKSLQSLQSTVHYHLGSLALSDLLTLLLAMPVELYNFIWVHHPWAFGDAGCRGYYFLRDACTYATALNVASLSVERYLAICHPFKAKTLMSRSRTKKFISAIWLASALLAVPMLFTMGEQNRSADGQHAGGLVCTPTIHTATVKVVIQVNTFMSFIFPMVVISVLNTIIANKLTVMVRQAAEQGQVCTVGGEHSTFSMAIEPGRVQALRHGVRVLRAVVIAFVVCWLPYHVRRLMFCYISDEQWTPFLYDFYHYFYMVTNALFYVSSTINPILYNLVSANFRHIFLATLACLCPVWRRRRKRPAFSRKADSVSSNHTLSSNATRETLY
Sequence of DNA dC->dU-editing enzyme APOBEC-3G (Q9HC16 whole entry): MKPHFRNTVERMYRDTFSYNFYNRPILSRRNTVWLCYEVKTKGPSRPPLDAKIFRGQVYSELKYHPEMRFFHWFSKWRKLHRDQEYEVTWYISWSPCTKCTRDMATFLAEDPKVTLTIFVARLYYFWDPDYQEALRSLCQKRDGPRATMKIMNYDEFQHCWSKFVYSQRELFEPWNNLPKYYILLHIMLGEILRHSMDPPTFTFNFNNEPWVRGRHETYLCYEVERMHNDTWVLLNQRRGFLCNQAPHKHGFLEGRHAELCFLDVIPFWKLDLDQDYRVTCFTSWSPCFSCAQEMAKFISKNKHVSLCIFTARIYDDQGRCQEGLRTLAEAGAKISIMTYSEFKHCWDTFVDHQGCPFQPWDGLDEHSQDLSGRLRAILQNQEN
Sequence of FAD-linked sulfhydryl oxidase ALR (P55789 whole entry): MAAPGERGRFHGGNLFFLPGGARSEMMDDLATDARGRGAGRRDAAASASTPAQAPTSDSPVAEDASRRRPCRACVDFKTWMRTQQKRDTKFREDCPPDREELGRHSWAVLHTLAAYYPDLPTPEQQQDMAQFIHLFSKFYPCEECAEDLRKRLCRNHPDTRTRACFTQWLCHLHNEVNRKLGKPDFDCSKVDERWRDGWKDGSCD

As for `COc1ccc(/C=N/NC(=O)CCn2cnc3ccccc32)cc1`, the IC50 in assay [1] was > 50 µM (inactive). Take `O=[N+]([O-])c1ccc(Cl)c(/C=N/n2c(S)nnc2-c2ccncc2)c1`: in assay [2], the IC50 is 4.79 µM (active). Consider `Cc1cccc(N2N=C(C(=O)N3CC(=O)Nc4ccccc43)CCC2=O)c1`, for which, in assay [1], the IC50 is > 50 µM (inactive). As for `COCCN(CCOC)c1nc(C)nc2c1nc(-c1ccccc1)n2CC1CCN(C)CC1`, the AC50 in assay [3] is 15.8 µM (inconclusive). Same read-out and setting: then `O=C1CC(c2ccccc2O)Oc2ccc(O)cc21` (centres undefined), with 25.1 µM (inconclusive). For the compound `O=C(c1ccc(Cl)cc1)C(CN1CCCCC1)c1ccccc1` (centres undefined), the AC50 in assay [4] is 19.4 µM (active). Moreover, the EC50 in assay [5] is 14.7 µM (active). Regarding `COc1ccc(C2Oc3cc(OC)cc(OC)c3CC2O)cc1` (centres undefined), the AC50 in assay [3] is 20 µM (inconclusive). `CCCCNc1nc(C)nc2c1nc(-c1ccccc1)n2CCCN(C)C`: the AC50 in assay [3] was 15.8 µM (inconclusive).

On to `COC(=O)c1ccc(Oc2nc(NC(C)C)nc(SC)n2)cc1`, for which the IC50 in [1] is > 50 µM (inactive). For `Cc1cccc(CN2C3=NCCCN3c3ccccc32)c1`, in assay [6], the EC50 was > 50 µM (active). On to `COc1ccc(NS(=O)(=O)c2cccc(NC(=O)c3ccccn3)c2)cc1`, for which the EC50 in [6] was > 50 µM (active). On to `C/C(=N/NC(=O)Cc1c(C)n[nH]c1O)c1ccc(O)cc1`, for which the AC50 in assay [7] was 1.49 µM (active). In addition, the IC50 in assay [8] is 31.4 µM (active); in [9], 4.09 µM (active). As for `CCCCn1c(-c2ccco2)n[nH]c1=S`, the AC50 in assay [7] was 33.6 µM (active). Also, the IC50 in [2] is 8.1 µM (active). As to `O=C(Cc1cc(O)n[nH]1)N/N=C/c1c(Cl)cccc1Cl`, in assay [10], the EC50 is 6.26 µM (inconclusive) and 1.51 µM (active). In assay [9], the IC50 was 49.9 µM (active). Moreover, in [11], the AC50 is 2.66 µM (active) and 7.7 µM (active). On to `CC(=O)c1cccc(NC(=O)CCC2CCCC2)c1`, for which the EC50 in [6] is > 50 µM (active). Besides, the AC50 in [12] was 28.2 µM (inconclusive). As for `COC(=O)C(NC(=O)c1ccco1)(Nc1nc(C)cs1)C(F)(F)F` (centres undefined), the IC50 in assay [1] was > 50 µM (inactive).

With `CC(c1cccnc1)N(CCN(C)C)C(=O)Nc1ccc(Cl)c(Cl)c1` (centres undefined), the EC50 in assay [6] is > 50 µM (active); in [13], 1.5 µM (active). Turning to `Cc1cc(C)cc(N2C(=O)NC(=O)/C(=C/c3cccn3-c3ccc(Cl)cc3)C2=O)c1`, the EC50 in [14] is 26.1 µM (active); in [5], 10.6 µM (active); in assay [16] it was 31.6 µM (active). The AC50 in [15] is 1.04 µM (active).
